Measured values as given in patent US8193333B2, “Cancer therapy using Bcl-Xl-specific siNA” (Centre Regional de Lutte Contre le Cancer-Centre Francois …, priority 2006, dated 2012).

Columns and labels:
SKOV3 cells = experiment: Cell mortality, viability, growth and cell cycle of SKOV3 cells (morphology, trypan blue exclusion, FACS of DNA content); type: cell-based, human
Method: Exponentially growing cells were exposed to CDDP for 2 hours at 37° C., in serum free medium. After exposure to the drug, the cell layers were rinsed and incubated in complete growth medium.
(§1) The siRNA duplexes were transfected according to the recommended procedure by using the Oligofectamine Reagent and Opti-MEM medium (INVITROGEN LIFE TECHNOLOGIES). 30-40% confluent cells were transfected in 25 cm^2 flasks with different concentrations of siXL1, siRNA Mcl-1 or siRNA control and incubated at 37° C., 5% CO2 for 4 hours. Next, 20% fetal bovin serum was added to reach a final concentration of 10% foetal bovin serum in the 25 cm^2 flask.
After treatment, detached cells were collected separately and adherent cells were dissociated by trypsin/EDTA. Adherent and detached cells were then pooled and centrifuged at 1500×g for 5 min before being fixed in 70% ethanol. The cells were then collected on a polylysine-coated glass slide by cytocentrifugation, before a 30 min room temperature incubation in a 1 μg/ml DAPI aqueous solution (BOEHRINGER MANNHEIM). Slides were thereafter extensively washed in distilled water and mounted in Mowiol (CALBIO-CHEM).
After treatment, detached cells were collected separately. Adherent cells were then harvested by trypsin/EDTA dissociation. Adherent and detached cells were then pooled and washed in PBS before being fixed in 70% ethanol and stored at −20° C. until analysis. Before flow cytometry analysis, the cells were washed in PBS and incubated for 30 min at room temperature in PBS in order to allow the release of low molecular weight (m.w.) DNA, characteristic of apoptotic cells. After a centrifugation at 4000 g for 10 min, the cell pellets were resuspended and stained with propidium iodide (PI) using the DNA Prep Coulter Reagent Kit (BECKMAN-COULTER) at a final concentration of 10^6 cells/ml.
Samples were analyzed using an EPICS XL flow cytometer (BECKMAN COULTER) equipped with an argon laser at 15 mW. PI-stained cells were analyzed using a 488 mn excitation. A 620 nm band pass filter was put on the red fluorescence of PI. Computerized gating was applied on the side and forward scatter to exclude very small debris and on pulse width and integral peak of red fluorescence to eliminate aggregates. All samples were analyzed at a flow rate lower than 100 events per second and with a sheath pressure of 30 psi.

Mcl-1 protein = experiment: Western blot of Mcl-1 protein expression in SKOV3 cells; type: cell-based, human; settings: FIG. 11B
Method: as §1
Cells were rinsed with ice cold PBS and lysed in 150 mM NaCl, 50 mM Tris-HCl pH 8, 1% Triton X100, 4 mM PMSF, 2 mM Aprotinin, 5 mM EDTA, 10 mM NaF, 10 mM NaPPi, 1 mM Na3VO4 for 30 min on ice. Lysates were clarified by centrifugation at 10000 g for 10 min at 4° C. and protein concentrations were determined using the Bradford assay (BIO-RAD). Equal amounts of total cellular protein (20 μg) were resolved in a Bis-tris-HCL buffered (pH 6.4) 4-12% polyacrylamide gel (NuPAGE® Novex® 4-12% Bis-tris gel, INVITROGEN) for 35 min at 200V and electrophoretically transferred on a PVDF membrane (MILLIPORE) for 75 min at 30V. The membrane was blocked for 1 hour at room temperature in T-TBS (132 mM NaCl, 20 mM Tris-HCl pH 7.6, 0.05% Tween 20) supplemented with 5% non-fat dry milk. […] After 3 washes with T-TBS and one with TBS, the immunoreactivity was detected by enhanced chemiluminescence (ECL kit, AMERSHAM).

[1] = test system: intraperitoneal SKOV3 human ovarian adenocarcinoma; experiment: Survival of nude mice bearing intraperitoneal SKOV3 tumours; type: in vivo, Swiss/nude mice
Method: 4-week-old female Swiss/nude mice were obtained from CHARLES-RIVER LABORATORIES and maintained in a pathogen-free environment. The mice were fed a standard laboratory diet and tap water ad libitum and kept a 23±1° C. with a 12 h light/dark cycle. Animal experiments in the present study were performed in compliance with the guidelines of the Federation of european laboratory animal science associations.
6-8 weeks old mice were implanted intraperitoneally with 2×10^7 ovarian adenocarcinoma SKOV3 cells. As described previously, this model reflects the i.p growth pattern of advanced ovarian cancer (Louis et al, Cancer Gene Therapy, 2006, 13, 367-374).
Twenty one days after tumour implantation, mice were allocated to one of the eight treatment groups (10 mice per group) summarized in Table II: • Group 1 comprised untreated animals. • Group 2 received intraperitoneal injection of 4 μg/kg cisplatin in 1 ml 0.9% NaCl solution. • Group 3 received intraperitoneal injection of 25 μg/kg control siRNA in 1 ml 0.9% NaCl. • Group 4 received intraperitoneal injection of 25 μg/kg Bcl-XL siRNA in 1 ml 0.9% NaCl. • Group 5 received intraperitoneal injection of 25 μg/kg control siRNA in 1 ml 0.9% NaCl and the following day 4 μg/kg of cisplatin in 1 ml 0.9% NaCl solution. • Group 6 received intraperitoneal injection of 4 μg/kg of cisplatin in 1 ml 0.9% NaCl solution and the following day 25 μg/kg control siRNA in 1 ml 0.9% NaCl. • Group 7 received intraperitoneal injection of 25 μg/kg Bcl-XL siRNA in 1 ml 0.9% NaCl and the following day 4 μg/kg of cisplatin in 1 ml 0.9% NaCl solution. • Group 8 received intraperitoneal injection of 4 μg/kg of cisplatin in 1 ml 0.9% NaCl solution and the following day 25 μg/kg Bcl-XL siRNA in 1 ml 0.9% NaCl.
The same treatment was repeated one month later. Mice were killed and autopsied when considered as moribund. Organs and tumours were formalin-fixed and paraffin-embedded for histological examination. At the end of the experiment, all surviving animals were sacrificed, and histological examination was performed in order to detect residual tumour nodes.

Substance: siXL1: double-stranded siRNA blocking Bcl-XL expression; sense 5′-auuggugagucggaucgcatt-3′ (SEQ ID NO: 5), anti-sense 5′-ugcgauccgacucaccaautt-3′ (SEQ ID NO: 6) (sense AUUGGUGAGUCGGAUCGCATT; antisense UGCGAUCCGACUCACCAAUTT; chemistry not given here)
- cytotoxic effect on SKOV3 cells (SKOV3 cells; 50 nM each siRNA, absence of cisplatin, FIG. 12): no cytotoxic effect
- cytotoxic effect of each siRNA (SKOV3 cells; SKOV3 cells, FIGS. 13 and 14): slight cytoxic effect
- cell viability (trypan blue exclusion) (SKOV3 cells; SKOV3 cells, alone 150 nM or in combination 75 nM each, FIGS. 13 and 14): reduction of cell viability
- cell death (morphology, FACS analysis of the cell cycle) (SKOV3 cells; SKOV3 cells, cisplatin 5 or 20 μg/ml, siRNA 150 nM): moderate cell death by apoptosis
- dose dependence of extinction of Mcl-1 protein expression (Mcl-1 protein): dose-dependent
- mice that die in the same interval as the control mice ([1]; group treated with siXL1): 50%
- mice with no residual tumors at autopsy after 150 days ([1]; group treated with siXL1): 50%
- duration of complete regression of the pre-established tumor after tumor cells implantation ([1]; low dose, mice implanted with human chemoresistant tumor cells): at least 5 months
- survival at 130 days ([1]; naked siRNA 25 μg/kg intraperitoneal, 2 injections at 28 days interval, FIG. 15): 60%
- effect on mice survival ([1]; siRNA 25 μg/kg, cisplatin 4 μg/kg intraperitoneal, treatment repeated one month later, FIG. 15): increases considerably
